Legend:
Format in all cases: physicochemical
[1] = Additives for improving re-solubility during storage, mannitol as excipient; settings: lyophilized, KRN7000 200 µg/ml, Polysorbate 20 0.5%, 25°C
Protocol: (§1) First, Polysorbate 20 was dissolved in distilled water in a concentration of 0.5%, and mannitol and a variety of additives such concentrations as listed in Table 8. Next, 20 mg of the active component (KRN7000) was weighed and stirred in 100 ml of the solvents in a heated bath to 80°C for 20 minutes in order to form a solution. After cooling with running water, the mixture was filtered through a 0.22 µm filter, and transparent colorless glass vials having a volume of 5 ml were charged with a 1 ml portion of each of a variety of solutions thus obtained and subjected to lyophilization. Lyophilization was carried out under the condition of preliminary freezing at -40°C for 2 hours and drying at -20°C for 24 hours, 10°C for 12 hours, and finally at 25°C for 5 hours to give the lyophilized product. The degree of vacuum was set at 0.1 Torr or less during drying step.
(§2) After the lyophilization step, the lyophilized composition was stored at 25°C. After storage for 1 month, the lyophilized composition was reconstituted in 1 ml of distilled water for injection, left standing for 30 minutes, and solubility was judged when the foams generated on reconstitution disappeared. The samples judged in solution were further stored, and judged again of their solubility after 4 months.
(§3) The solubility was judged by cleaning the outside of the vial and placing it beneath the white light source in a darkroom for observation with naked eye at the position of a luminous intensity of about 5,000 lux. When the sample was clear with no precipitates, it was judged that the active component was dissolved.

[2] = Cooling condition after dissolution with heating 2: turbidity after storage; settings: lyophilized composition (Polysorbate 20 0.5%, histidine 0.75%, sucrose 5.6%) stored at 50°C for 1 week, reconstituted
Protocol: First, Polysorbate 20 was dissolved in distilled water in a concentration of 0.5%, histidine in a concentration of 0.75%, and sucrose in a concentration of 5.6%. Next, 800 mg of the active component (KRN7000) was weighed and stirred in 4 liters of the solvent under heating at 73°C for 30 minutes in order to form a solution. After dissolution, the mixture was divided into about 500 ml portions, cooled rapidly - gradually with stirring under the following six rates:
After cooling, the mixtures were filtered through a 0.22 µm filter, and transparent colorless glass vials having a volume of 5 ml were charged with a 1 ml portion of each of a variety of solutions thus obtained and subjected to lyophilization. Lyophilization was carried out under the condition of preliminary freezing at -50°C for 5 hours and drying at -15°C for 48 hours, 10°C for 12 hours, and finally at 25°C for 7 hours to give the lyophilized product. The degree of vacuum was set at 0.1 Torr or less during drying step.
After lyophilization, the lyophilized composition thus obtained was stored at 50°C for 1 week, and the turbidity of the reconstituted solution was measured. In this connection, the turbidity of the lyophilized composition was used which was reconstituted in 1 ml of distilled water for injection and left standing for 30 minutes, and turbidity was measured when the foams generated on reconstitution disappeared.
The turbidity was measured by the following method: various dilutions including 50-fold dilution (kaolin 2 µg/ml, turbidity 2.00), 100-fold dilution (kaolin 1 µg/ml, turbidity 1.00), and 200-fold dilution (kaolin 0.5 µg/ml, turbidity 0.50) were prepared by diluting the turbidity standard (kaolin, […]) with distilled water. A calibration curve was made by measuring the absorbance at a wave length of 660 nm with a control of distilled water and the various dilutions in a spectrophotometer (HITACHI U-3210). Next, the absorbance of the solutions was measured under the same condition as above to calculate the turbidity of the solutions.

[3] = Addition effects of sodium deoxycholate and histidine in the absence of a sugar; settings: lyophilized, KRN7000 200 µg/ml, Polysorbate 20 0.5%, 1%, no sugar, 50°C
Protocol: Addition effects of sodium deoxycholate and histidine in the absence of a sugar as the excipient was examined.
First, Polysorbate 20 was dissolved in distilled water in a concentration of 0.5%, and histidine or sodium deoxycholate in a concentration of 1.0%. Next, 20 mg of the active component (KRN7000) was weighed and stirred in 100 ml of the solvents in a heated bath to 80°C for 20 minutes in order to form a solution. After cooling with running water, the mixture was filtered through a 0.22 µm filter, and transparent colorless glass vials having a volume of 5 ml were charged with a 1 ml portion of each of a variety of solutions thus obtained and subjected to lyophilization. Lyophilization was carried out under the condition of preliminary freezing at -40°C for 2 hours and drying at -20°C for 24 hours, 10°C for 12 hours, and finally at 25°C for 5 hours to give the lyophilized product. The degree of vacuum was set at 0.1 Torr or less during drying step.
After the lyophilization step, the lyophilized composition thus obtained was stored at 50°C. After storage for 3 days or 2 weeks, the lyophilized composition was reconstituted in 1 ml of distilled water for injection, left standing for 30 minutes, and solubility was judged when the foams generated on reconstitution disappeared. […]

[4] = Excipient appropriate to lyophilization 2: re-solubility after storage; settings: lyophilized, KRN7000 200 µg/ml, Polysorbate 20 0.5%, 25°C
Protocol: The lyophilized preparations having mannitol and sucrose added thereto were observed on their variation with the passage of time.
as §1, with “the saccharides were dissolved in” for “mannitol and a variety of additives”, “7.” for “8.”
as §2, §3

Which results are given for `CCCCCCCCCCCCCCCCCCCCCCCCCC(=O)N[C@@H](CO[C@H]1O[C@H](CO)[C@H](O)[C@H](O)[C@H]1O)[C@H](O)[C@H](O)CCCCCCCCCCCCCC` [KRN7000, (2S,3S,4R)-1-(α-D-galactopyranosyloxy)-2-hexacosanoylamino-3,4-octadecanediol]?
Re-solubility after storage (by naked eye) ([1]; Mannitol 10%, Sodium deoxycholate, 1%, 1 month): - (- dissolved); Re-solubility after storage (by naked eye) ([1]; Mannitol 10%, Sodium deoxycholate, 1%, 4 months): - (- dissolved); Re-solubility after storage (by naked eye) ([1]; Mannitol 10%, no additive, 1 month): - (- dissolved); Re-solubility after storage (by naked eye) ([1]; Mannitol 10%, no additive, 4 months): + (+ not dissolved (or deposited)); Re-solubility after storage (by naked eye) ([1]; Mannitol 15%, Glycerol, 0.1%, 1 month): + (+ not dissolved (or deposited)); Re-solubility after storage (by naked eye) ([1]; Mannitol 15%, Glycerol, 0.1%, 4 months): + (+ not dissolved (or deposited)); Re-solubility after storage (by naked eye) ([1]; Mannitol 15%, Glycerol, 1%, 1 month): + (+ not dissolved (or deposited)); Re-solubility after storage (by naked eye) ([1]; Mannitol 15%, Glycerol, 1%, 4 months): + (+ not dissolved (or deposited)); Re-solubility after storage (by naked eye) ([1]; Mannitol 15%, PEG400, 1%, 1 month): + (+ not dissolved (or deposited)); Re-solubility after storage (by naked eye) ([1]; Mannitol 15%, PEG400, 1%, 4 months): + (+ not dissolved (or deposited)); Re-solubility after storage (by naked eye) ([1]; Mannitol 15%, Sodium deoxycholate, 1%, 1 month): + (+ not dissolved (or deposited)); Re-solubility after storage (by naked eye) ([1]; Mannitol 15%, Sodium deoxycholate, 1%, 4 months): + (+ not dissolved (or deposited)); Re-solubility after storage (by naked eye) ([1]; Mannitol 15%, no additive, 1 month): + (+ not dissolved (or deposited)); Re-solubility after storage (by naked eye) ([1]; Mannitol 15%, no additive, 4 months): + (+ not dissolved (or deposited)); Turbidity ([2]; cooling ① 73°C → 30°C, 4 minutes (10.75°C/min)): 2.08; Turbidity ([2]; cooling ② 73°C → 30°C, 6 minutes (7.17°C/min)): 2.67; Turbidity ([2]; cooling ③ 73°C → 30°C, 7 minutes (6.14°C/min)): 3.31; Turbidity ([2]; cooling ④ 73°C → 30°C, 10 minutes (4.30°C/min)): 3.80; Turbidity ([2]; cooling ⑤ 73°C → 30°C, 23 minutes (1.87°C/min)): 6.44; Turbidity ([2]; cooling ⑥ 73°C → 30°C, 120 minutes (0.36°C/min)): 18.84; Re-solubility after storage (by naked eye) ([3]; Histidine, 2 weeks): + (+ not dissolved (or deposited)); Re-solubility after storage (by naked eye) ([3]; Sodium deoxycholate, 3 days): + (+ not dissolved (or deposited)); Re-solubility after storage (by naked eye) ([4]; Mannitol 10%, 1 month): - (- dissolved); Re-solubility after storage (by naked eye) ([4]; Mannitol 10%, 4 months): + (+ not dissolved (or deposited)); Re-solubility after storage (by naked eye) ([4]; Sucrose 9.6%, 1 month): - (- dissolved); Re-solubility after storage (by naked eye) ([4]; Sucrose 9.6%, 4 months): + (+ not dissolved (or deposited))

— patent publication EP1016409B1, “FREEZE DRIED COMPOSITION COMPRISING GLYCOSPHINGOLIPIDS” (KIRIN BEER KABUSHIKI KAISHA, priority 1997, dated 1998)
